According to article PMC8375385, “In vitro Effect of Harmine Alkaloid and Its N-Methyl Derivatives Against Toxoplasma gondii” (Frontiers in Microbiology, 2021):
“Also recorded” adds a separate entry of the source. Read-outs that look alike come from different tables or passages of the source.

Legend:
[1] = tested on: T. gondii RH Δhxgprt tachyzoites; assay: Replication assay (tachyzoites per PV); format: cell-based, Toxoplasma gondii
Procedure: The effect of βCs on the replication process was evaluated on both extracellular and intracellular treated tachyzoites of the strain RH Δhxgprt. In the first case, the procedure followed was described above (see invasion assay), but after allowing the invasion, samples were washed with PBS and incubated for 1 day with supplemented DMEM (without drugs), before fixing and staining. To investigate βCs’ action on intracellular parasites, confluent Vero cells grown in 24-well plates were infected with 2 × 10^6 tachyzoites per well and treated for 2 days with different concentrations of the investigated drugs or the vehicle (DMSO) as negative control. Finally, they were fixed and immunolabeled as detailed previously. The number of tachyzoites per PV was analyzed under a microscope with × 63 magnification. At least 100 PVs selected at random were scored in triplicates, per compound dose, in two independent sets of experiments. Results are depicted as the mean percentage of PVs (% PV) that contained a geometric progression 2^n (with “n” being a natural number ≥ 0) of tachyzoites per PV ± SEM.

[2] = tested on: T. gondii RH RFP tachyzoites; assay: Time of removal assay; format: cell-based, Toxoplasma gondii; conditions: for growth recovery after drug removal: followed up to 15 d.p.i.
[3] = tested on: topoisomerase I; design: method as in Cao et al., 2005; conditions: cell-free system, ref Cao et al., 2005, cited from earlier work
[4] = tested on: human topoisomerase II; design: method as in Cao et al., 2005; conditions: 600 μM; ref Cao et al., 2005; cited from earlier work
[5] = tested on: T. gondii RH Δhxgprt tachyzoites; assay: Plaque reduction assay; format: cell-based, Toxoplasma gondii
Procedure: Monolayers of hTERT fibroblasts grown into 24-well plates were infected with 1 × 10^4 tachyzoites per well of the RH Δhxgprt strain. Then, they were washed with PBS and treated with different concentrations of 3 or the vehicle (DMSO) diluted in supplemented DMEM. After 6.5 days of incubation, monolayers were washed, fixed with ethanol (70% v/v), and stained with crystal violet (Sigma). The IC50 value was obtained by nonlinear regression analysis of the number of plaques vs log[3] (variable Hill’s slope). The area of the plaques was analyzed by ImageJ software.

[6] = tested on: T. gondii RH Δhxgprt tachyzoites; assay: Tachyzoite cell cycle analysis by flow cytometry; format: cell-based, Toxoplasma gondii; conditions: infected hTERT fibroblasts, 2 days; 1–3 at 7.5 μM, SDZ at 500 μM
Procedure: Tachyzoites of the RH Δhxgprt strain (3 × 10^6) were added to hTERT cell monolayers grown into six-well plates. After invasion was allowed, the medium was changed, and infected cells were incubated for 2 days with 1, 2, and 3 (7.5 μM); SDZ (500 μM, positive control); or the vehicle (negative control), diluted in supplemented DMEM. Then, cells were detached using trypsin/EDTA solution and gently ruptured by successive passages through 27- and 30-gauge needles in order to obtain free parasites. Samples were centrifuged (2,000 rpm, 10 min), washed with PBS, fixed with 70% ethanol, and stored for 1 day at −20°C. Afterward, samples were processed and stained as described previously ([Munera Lopez et al., 2019]). At least 10,000 tachyzoites per sample were analyzed by flow cytometry measurements, carried out in a BD FACSCalibur equipment. Results were analyzed using FlowJo software 7.6. All assays were performed in duplicates, in two independent experiments.

[7] = tested on: ctDNA; conditions: pH 7.4; ref Vignoni et al., 2014; cited from earlier work
[8] = tested on: T. gondii RH RFP tachyzoites; assay: Lytic cycle growth assay (RFP fluorescence); format: cell-based, Toxoplasma gondii; conditions: for IC50: Toxoplasma gondii, Fibroblast, RH RFP strain in hTERT fibroblasts, read-out: IC50 (converted)
[9] = tested on: Vero cells; assay: MTT cytotoxicity on Vero host cells, 2 days; conditions: Vero cells, 2 days of treatment (Table 1 footnote a)
[10] = MTT cytotoxicity on Vero host cells, 2 days; conditions: African green monkey (Cercopithecus aethiops), Vero cells (monolayers), CC50, Vero cells, 2 days of treatment (Table 1 footnote a)
[11] = tested on: T. gondii RH Δhxgprt tachyzoites; assay: Invasion assay, pretreated extracellular tachyzoites; format: cell-based, Toxoplasma gondii; conditions: extracellular tachyzoites preincubated 1 h, 0 up to ∼50 μM, Vero cells
Procedure: Extracellular tachyzoites of RH Δhxgprt strain (2 × 10^6) were preincubated for 1 h (at 37°C and 5% CO2) with different doses of the assayed compounds (up to 40–50 μM) or the vehicle (DMSO) diluted in supplemented DMEM. Parasites were, then, centrifuged, resuspended in supplemented DMEM, and were allowed to invade Vero cell monolayers grown on coverslips in 24-well plates by incubation for 10 min on ice followed by 1 h at 37°C. Invasion assay was performed as described elsewhere ([Yañuk et al., 2017]). To facilitate counting, cells were analyzed by indirect immunofluorescence assay (IFA). Immunostaining was performed using anti-SAG1 mouse monoclonal (Novus Biologicals, 1:50)/goat anti-mouse Alexa Fluor 488 (Invitrogen, 1:4,000) antibodies. Fifty random fields per sample, with a similar number of host cells, were analyzed under microscope (Zeiss Axio Observer Colibri 7, magnification × 63). The number of parasitophorous vacuoles per field (PV/field) was counted. Data are presented as means of PV/field ± SEM. Two independent experiments were performed in duplicates.

[12] = tested on: hTERT fibroblasts; assay: MTT cytotoxicity on hTERT fibroblasts, 4 days; format: cell-based, human; conditions: 10 μM, 4 days
Procedure: (§1) The same assay was performed for hTERT fibroblasts, incubated for 4 days with different concentrations of 3. Absorbance was read at 540 nm (reference wavelength: 700 nm) in a plate reader (Synergy H1 Hybrid Reader, BioTek). Average absorbance from background wells (without cells, treated as the samples) was subtracted out, to obtain corrected values (A540 corr). The percentage of cell viability was calculated as follows:
(§2) Cellviability(%)=A540corrtreatedcells/A540corruntreatedcells×100
(§3) CC50 values were obtained by nonlinear regression analysis of cell viability (%) vs. log[compound] with a variable Hill’s slope, using the GraphPad Prism 5.03 software. Each concentration was assayed in triplicates, in three independent sets of experiments. To avoid effects of evaporation, outer wells were not used.

[13] = MTT cytotoxicity on hTERT fibroblasts, 4 days; format: cell-based, human; conditions: human, MTT, 4 days of incubation (Table 1 footnote b)
Procedure: as §1, §2, §3

COc1ccc2c3ccnc(C)c3n(C)c2c1 [Compound 3, 9-methyl-harmine]
increase of % PV with one parasite (% PV (1P)) vs control ([1]; 1-h-pretreated extracellular tachyzoites, 5–50 μM, 1 day of incubation without drug): fivefold | % PV (1P) ([1]; intracellular tachyzoites in Vero cells, 7.5 μM, 2 days of incubation): 78% | growth recovery after drug removal ([2]; 1.7 and 2 days of treatment, 7.5 μM): significant reduction of tachyzoite growth | growth recovery after drug removal ([2]; 1.7 and 2 days of treatment, 10 μM): total growth inhibition | growth recovery after drug removal ([2]; 0.7 days of treatment, 5, 7.5 and 10 μM): not effective | parasite growth under continuous treatment ([2]; continuous treatment up to 15 days, 5, 7.5 and 10 μM): complete inhibition of parasite growth | inhibition of topoisomerase I activity ([3]; 50 μM): strongly decreases | inhibition of topoisomerase I activity ([3]; 150 μM): inhibited | inhibition of human topoisomerase II [4]: do not inhibit | parasite growth in plaque assay ([5]; 7.5 μM, 6.5 days, RH Δhxgprt): no parasite growth | IC50 ([5]; Toxoplasma gondii, Fibroblast, 156 h, read-out: IC50 (number of plaques)): 3.1 µM | effect on tachyzoite cell cycle (DNA content, G1 vs S/M) [6]: arrest in S/M phases; also recorded: significant enrichment in tachyzoite DNA content compatible with S/M phases | overall binding constant to ctDNA [7]: 16.8 ± 0.5 × 10^3 M^–1 in bp | selectivity index (SI) ([8]; CC50 hTERT 4 days / IC50 at 4 d.p.i.): 17.2 | effect on tachyzoite growth ([8]; RH RFP in hTERT fibroblasts, up to 10 μM, 3 d.p.i.): strong growth inhibition | IC50 ([8]; 72 h, 3 d.p.i. (Table 1 footnote d)): 1.6 ± 0.2 µM | IC50 ([8]; 96 h, 4 d.p.i. (Table 1 footnote e)): 1.8 µM | CC50 [9]: 59 ± 8 µM | CC50 at 2 days [10]: ~60 µM | effect on invasion process (PV/field) [11]: negligible or rather low effect | impact on fibroblast metabolism (MTT) [12]: no impact | CC50 at 4 days [13]: 31 µM
